What was measured:
Assay type in all cases: in vivo
Abutilon theophrasti = assay: Test Example 4: herbicidal effect by soil treatment (symbol M); conditions: application herbicide amount 320 g/ha
Method in brief: (§1)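 Seeds were sown in sterilized diluvial soil, covered with about 1.5 cm of soil, and the soil surface was sprayed with a water-diluted emulsion of the compound at a predetermined rate. Plants grew in a greenhouse at 25° C. to 30° C.; effects were scored visually 3 weeks after application.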

rapeseed = assay: Test Example 4: effect on crop by soil treatment (symbol g); conditions: application herbicide amount 320 g/ha
Method in brief: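 Grown at 25° C. to 30° C. in a greenhouse, the crops came from seed sown spot-wise in sterilized diluvial soil under roughly 1.5 cm of covering soil.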

Digitaria ciliaris [1] = assay: Test Example 5: herbicidal effect by foliage application, plastic box (symbol F); conditions: 320 g/ha, 3 weeks after application
Method in brief: (§2)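 Seeds were sown in sterilized diluvial soil, covered with about 1.5 cm of soil and grown 14 days in a greenhouse at 25° C. to 30° C. An emulsifiable formulation diluted in water to a set rate was sprayed over foliage, and injury was scored 3 weeks later.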

Avena fatua = assay: Test Example 5: herbicidal effect by foliage application, plastic box (symbol I); conditions: 320 g/ha, 3 weeks after application
Method in brief: as §2

Digitaria ciliaris [2] = assay: Test Example 4: herbicidal effect by soil treatment (symbol F); conditions: application herbicide amount 320 g/ha
Method in brief: as §1

Amaranthus retroflexus [3] = assay: Test Example 4: herbicidal effect by soil treatment (symbol N); conditions: application herbicide amount 320 g/ha
Method in brief: as §1

[4] = test system: Echinochloa crus-galli var. crus-galli; assay: Test Example 3: herbicidal effect by foliage application, Wagner pot (symbol H); conditions: application herbicide amount 320 g/ha
Method in brief: (§3)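 In a shallow-flooded alluvial soil system held at 25–30 °C, plants including rice grew for 14 days and were then sprayed over the foliage with emulsion diluted to a fixed herbicide amount. Visual rating followed at 3 weeks.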

Leptochloa chinensis = assay: Test Example 3: herbicidal effect by foliage application, Wagner pot (symbol D); conditions: application herbicide amount 320 g/ha
Method in brief: as §3

Stellaria media = assay: Test Example 5: herbicidal effect by foliage application, plastic box (symbol P); conditions: 320 g/ha, 3 weeks after application
Method in brief: as §2

[5] = test system: Echinochloa crus-galli var. crus-galli; assay: Test Example 4: herbicidal effect by soil treatment (symbol H); conditions: application herbicide amount 320 g/ha
Method in brief: as §1

Lolium multiflorum Lam. = assay: Test Example 4: herbicidal effect by soil treatment (symbol K); conditions: application herbicide amount 320 g/ha
Method in brief: as §1

beet = assay: Test Example 5: effect on crop by foliage application, plastic box (symbol f); conditions: 320 g/ha, 3 weeks after application
Method in brief: (§4)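 Foliage-application test plants come from spot sowing in sterilized diluvial soil under a soil layer of about 1.5 cm, grown at 25° C. to 30° C. in a greenhouse.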

Scirpus juncoides = assay: Test Example 2: herbicidal activity, application during weed generation in submerged conditions (symbol B); conditions: Table 23; application herbicide amount 320 g/ha; grade 0-5 by criteria of Test Example 1
Method in brief: (§5)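 Compound was applied as a water-diluted emulsion into the standing water of flooded pots (4 cm) once co-sown weeds reached one to two leaves. Greenhouse temperature was 25° C. to 30° C., soil was alluvial, and each species was rated visually after 3 weeks.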

Veronica persica = assay: Test Example 5: herbicidal effect by foliage application, plastic box (symbol R); conditions: 320 g/ha, 3 weeks after application
Method in brief: as §2

wheat = assay: Test Example 5: effect on crop by foliage application, plastic box (symbol e); conditions: 320 g/ha, 3 weeks after application
Method in brief: as §4

Amaranthus retroflexus [6] = assay: Test Example 5: herbicidal effect by foliage application, plastic box (symbol N); conditions: 320 g/ha, 3 weeks after application
Method in brief: as §2

[7] = test system: Echinochloa oryzacola Vasing.; assay: Test Example 2: herbicidal activity, application during weed generation in submerged conditions (symbol A); conditions: Table 23; application herbicide amount 320 g/ha; grade 0-5 by criteria of Test Example 1
Method in brief: as §5

rice plant = assay: Test Example 5: effect on crop by foliage application, plastic box (symbol b); conditions: 320 g/ha, 3 weeks after application
Method in brief: as §4

Apera spica-venti = assay: Test Example 4: herbicidal effect by soil treatment (symbol L); conditions: application herbicide amount 320 g/ha
Method in brief: as §1

Chenopodium album = assay: Test Example 5: herbicidal effect by foliage application, plastic box (symbol O); conditions: 320 g/ha, 3 weeks after application
Method in brief: as §2

Structure (SMILES) | M: Abutilon theophrasti, herbicidal effect grade (Abutilon theophrasti) | g: rapeseed, effect on crop grade (rapeseed) | F: Digitaria ciliaris, herbicidal effect grade (Digitaria ciliaris [1]) | I: Avena fatua, herbicidal effect grade (Avena fatua) | F: Digitaria ciliaris, herbicidal effect grade (Digitaria ciliaris [2]) | N: Amaranthus retroflexus, herbicidal effect grade (Amaranthus retroflexus [3]) | herbicidal effect on H (Echinochloa crus-galli var. crus-galli), grade 0-5 [4] | herbicidal effect on D (Leptochloa chinensis), grade 0-5 (Leptochloa chinensis) | P: Stellaria media, herbicidal effect grade (Stellaria media) | H: Echinochloa crus-galli var. crus-galli, herbicidal effect grade [5] | K: Lolium multiflorum Lam., herbicidal effect grade (Lolium multiflorum Lam.) | f: beet, effect on crop grade (beet) | Herbicidal effect grade, B: Scirpus juncoides (Scirpus juncoides) | R: Veronica persica, herbicidal effect grade (Veronica persica) | e: wheat, effect on crop grade (wheat) | N: Amaranthus retroflexus, herbicidal effect grade (Amaranthus retroflexus [6]) | Herbicidal effect grade, A: Echinochloa oryzacola Vasing. [7] | b: directly sowed rice plant, effect on crop grade (rice plant) | L: Apera spica-venti, herbicidal effect grade (Apera spica-venti) | O: Chenopodium album, herbicidal effect grade (Chenopodium album)
CON=C(C)CC1CC(O)=C(c2c(C)cc(Br)cc2C)C1=O (stereo not drawn) [6-003] | 5 (Herbicidal ratio of 90% or more (almost completely withered)) | 4 (Herbicidal ratio of 70% or higher and lower than 90%) | 5 (Herbicidal ratio of 90% or more (almost completely withered)) | 5 (Herbicidal ratio of 90% or more (almost completely withered)) | 5 (Herbicidal ratio of 90% or more (almost completely withered)) | 3 (Herbicidal ratio of 40% or higher and lower than 70%) | 5 (Herbicidal ratio of 90% or more (almost completely withered)) | 5 (Herbicidal ratio of 90% or more (almost completely withered)) | 2 (Herbicidal ratio of 20% or higher and lower than 40%) | 5 (Herbicidal ratio of 90% or more (almost completely withered)) | 5 (Herbicidal ratio of 90% or more (almost completely withered)) | 0 (Herbicidal ratio of 5% or lower (almost no effect)) | 1 (Herbicidal ratio of 5% or higher and lower than 20%) | 0 (Herbicidal ratio of 5% or lower (almost no effect)) | 0 (Herbicidal ratio of 5% or lower (almost no effect)) | 0 (Herbicidal ratio of 5% or lower (almost no effect)) | 4 (Herbicidal ratio of 70% or higher and lower than 90%) | 5 (Herbicidal ratio of 90% or more (almost completely withered)) | 5 (Herbicidal ratio of 90% or more (almost completely withered)) | 1 (Herbicidal ratio of 5% or higher and lower than 20%)
CON=C(C)CC1CC(O)=C(c2c(C)cc(C)cc2OC)C1=O (stereo not drawn) [6-037, 3-hydroxy-2-(2-methoxy-4,6-dimethylphenyl)-5-{2-(methoxyimino)propyl}cyclopent-2-enone] | 5 (Herbicidal ratio of 90% or more (almost completely withered)) | 3 (Herbicidal ratio of 40% or higher and lower than 70%) | 5 (Herbicidal ratio of 90% or more (almost completely withered)) | 5 (Herbicidal ratio of 90% or more (almost completely withered)) | 5 (Herbicidal ratio of 90% or more (almost completely withered)) | 3 (Herbicidal ratio of 40% or higher and lower than 70%) | 5 (Herbicidal ratio of 90% or more (almost completely withered)) | 5 (Herbicidal ratio of 90% or more (almost completely withered)) | 4 (Herbicidal ratio of 70% or higher and lower than 90%) | 5 (Herbicidal ratio of 90% or more (almost completely withered)) | 5 (Herbicidal ratio of 90% or more (almost completely withered)) | 3 (Herbicidal ratio of 40% or higher and lower than 70%) | 4 (Herbicidal ratio of 70% or higher and lower than 90%) | 3 (Herbicidal ratio of 40% or higher and lower than 70%) | 5 (Herbicidal ratio of 90% or more (almost completely withered)) | 5 (Herbicidal ratio of 90% or more (almost completely withered)) | 5 (Herbicidal ratio of 90% or more (almost completely withered)) | 5 (Herbicidal ratio of 90% or more (almost completely withered)) | 5 (Herbicidal ratio of 90% or more (almost completely withered)) | 3 (Herbicidal ratio of 40% or higher and lower than 70%)
CON=C(C)CC1CC(O)=C(c2c(C)cc(C)cc2Br)C1=O (stereo not drawn) [6-038] | 5 (Herbicidal ratio of 90% or more (almost completely withered)) | 5 (Herbicidal ratio of 90% or more (almost completely withered)) | 5 (Herbicidal ratio of 90% or more (almost completely withered)) | 5 (Herbicidal ratio of 90% or more (almost completely withered)) | 5 (Herbicidal ratio of 90% or more (almost completely withered)) | 4 (Herbicidal ratio of 70% or higher and lower than 90%) | 5 (Herbicidal ratio of 90% or more (almost completely withered)) | 5 (Herbicidal ratio of 90% or more (almost completely withered)) | 4 (Herbicidal ratio of 70% or higher and lower than 90%) | 5 (Herbicidal ratio of 90% or more (almost completely withered)) | 5 (Herbicidal ratio of 90% or more (almost completely withered)) | 0 (Herbicidal ratio of 5% or lower (almost no effect)) | 4 (Herbicidal ratio of 70% or higher and lower than 90%) | 3 (Herbicidal ratio of 40% or higher and lower than 70%) | 3 (Herbicidal ratio of 40% or higher and lower than 70%) | 5 (Herbicidal ratio of 90% or more (almost completely withered)) | 4 (Herbicidal ratio of 70% or higher and lower than 90%) | 5 (Herbicidal ratio of 90% or more (almost completely withered)) | 5 (Herbicidal ratio of 90% or more (almost completely withered)) | 3 (Herbicidal ratio of 40% or higher and lower than 70%)

Reference: US11000033B2, “Ketone or oxime compound, and herbicide” (NISSAN CHEMICAL CORPORATION, priority 2014, dated 2021)
